Reference: the METLIN SMRT retention time set (Domingo-Almenara et al. 2019)

Assay: gradient 5% acetonitrile 3 min, to 50% in 2 min, to 85% in 15 min, held 3 min, 100 µL/min
Conditions: column: Zorbax Extend-C18 2.1 x 50 mm; eluents: water / acetonitrile, 0.1% formic acid
Outline: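 Mixtures of ~100 pure standards were chromatographed on a Zorbax Extend-C18 column (2.1 × 50 mm, 1.8 μm) at 100 μL/min using water and acetonitrile, each with 0.1% formic acid. Detection used a quadrupole time-of-flight mass spectrometer in positive and negative ionization mode, and data collection spanned 3 months. Retention time was obtained from adduct peaks picked computationally and each checked manually.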

SMILES | RP-LC retention time [s]
O=C1C2N=NN(Cc3nc(-c4cccc(Cl)c4)no3)C2C(=O)N1c1ccc2c(c1)CCC2 (centres undefined) | 1130
CC1CCN(S(=O)(=O)c2ccc3nn(Cc4ccccc4F)c(=O)n3c2)CC1 | 653
CC(C)n1c(=O)sc2cc(S(=O)(=O)N3CCC(C(=O)N4CCCC4)CC3)ccc21 | 809
CCOCCCNCc1ccc(-c2ccc(F)cc2)o1 | 672
COCc1noc(C2CCCCN2C(=O)Cc2c(C)noc2C)n1 (centres undefined) | 673
C#CCOCC1CCN(C(=O)CC2CCCCC2)CC1 | 864
COc1cccc(C(C#N)N2N=C(C)CC2c2ccccc2)c1O (centres undefined) | 965
CC(=O)N1CCN(c2ccnc3c2c(=O)n(CC(=O)Nc2cc(C)on2)c(=O)n3C)CC1 | 579
CCOc1ccc(Cc2nc(-c3ccc4c(c3)nc(C)c(=O)n4C)no2)cc1OCC | 970
COc1ccc(NC2=NCCO2)c2c1CCCC2 | 640
Cc1nn(CC(=O)NCC2CCN(Cc3ccc(Cl)cc3)CC2)c(=O)c2noc(C)c12 | 617
OCCN1CCN(c2ncnc3c2cnn3-c2ccccc2Cl)CC1 | 592
CNc1cc(NS(=O)(=O)c2ccc(N)cc2)nc(NC)n1 | 370
COc1cccc(-c2cc3n(n2)CCCN(Cc2cccnc2)C3)c1 | 526
Cc1cccc(N2CCN(c3ccc4cc(S(=O)(=O)N5CCCCC5)ccc4n3)CC2)c1C | 1320
CCC1CCCCN1Cc1ccc(CNC(=O)c2c(C)oc3c2C2=NCCN2C=N3)o1 (centres undefined) | 710
CC(C)c1nc(-c2ccc(OC3CCN(C(=O)Cc4c[nH]c5ccccc45)C3)cc2)no1 (centres undefined) | 923
Cc1ccoc1C(=O)N1C[C@@H](CO)[C@H](c2nc(C3CC3)no2)C1 | 688
CCC(C)NC(=O)C1CCN(S(C)(=O)=O)c2cc(Cl)ccc2O1 (centres undefined) | 862
COc1ccc(CCc2nc(C3CC(=O)N(c4ccc(F)c(Cl)c4)C3)no2)cc1 (centres undefined) | 1040
CCCc1ccc(S(=O)(=O)N2CCCC2c2nc(-c3ccc(Cl)cc3)no2)cc1 (centres undefined) | 1380
Cc1nn(-c2nc(CC(=O)Nc3nc(-c4ccccc4)cs3)cs2)c(C)c1Cl | 1270
COc1cccc(-n2c(=O)c3sccc3n(Cc3nc(-c4ccc(OC(C)C)cc4)no3)c2=O)c1 | 1080
COc1ccc(CC(=O)N2CCn3cnnc3C2)cc1Cl | 621
C[C@H]1CN(C(=O)c2c(F)cccc2F)C[C@@H]1c1nc(-c2ccccc2)no1 | 1020

SMILES | RP-LC retention time [s]
CN1Cc2c(N)cccc2C(c2ccccc2)C1 (centres undefined) | 678
CC(=O)N(Cc1nn(C)c2c1CN(S(=O)(=O)c1ccc(Cl)cc1)CC2)c1ccccc1 | 844
Cc1ccccc1Cc1nc(-c2ccc3c(c2)nnn3CCN2CCOCC2)no1 | 692
CCCCNC(=O)C1CCN(C(=O)CCc2c(C)[nH]c(C(=O)OCC)c2C)CC1 | 748
CCN(CC)C(=O)c1c2c(cn(-c3ccc(F)cc3)c1=O)C(=O)CC(C)(C)C2 | 759
Cc1cc(N2CCOCC2)nc(N2CCN(S(=O)(=O)c3cc(C)c(C)cc3C)CC2)n1 | 733
O=C(NCCOc1cccc(C(F)(F)F)c1)C1CCCC1 | 880
CCn1cc(-c2ccc(OC)cc2)cc1C(=O)N1CCC(C)CC1 | 1110
COc1cc(Cl)ccc1-c1nc(-c2cccc(-c3ccnn3C)c2)no1 | 1190
CNc1nc(N(C)C)nc(N(C)C)n1 | 602
COc1ccc(OC)c(NC(=O)N(C)CCc2noc(COc3ccc(F)cc3)n2)c1 | 919
Cc1cc(C)cc(NC(=O)C2CCN(S(=O)(=O)c3cn(C)cn3)CC2)c1 | 732
Cc1ccc(NC(=O)C2CCN(S(=O)(=O)c3cn(C(C)C)cn3)CC2)nc1 | 626
CCOC(=O)c1c(C)n(C)c2ccc(OC(C)=O)cc12 | 889
COc1ccc(S(=O)Cc2ccc(C(=O)NCCCN3CCc4ccccc4C3)o2)cc1 (centres undefined) | 619
CCCCOc1ccc(C(=O)N2CCN(c3cc(C)nc(N4CCCCC4)n3)CC2)cc1 | 816
Cc1ccc(CNC(=O)C2(C)Cn3nc(C(=O)NCc4cccc(C)c4)cc3C(=O)N2C)cc1 (centres undefined) | 824
O=C(Nc1ccc(Br)cc1F)N1CCN(Cc2ccc3nccnc3c2)CC1 | 627
Cc1c(Cl)cccc1NC(=O)Cn1c(C)nc2c(sc3nc(-c4ccccc4)ccc32)c1=O | 1210
CCOC(=O)C1CCN(C(=O)C2CCCN(c3cnc4nc(C)c(C)nc4c3)C2)CC1 (centres undefined) | 689
Cc1c(CCC(=O)N2CCC(C(N)=O)CC2)c(=O)oc2cc3oc4c(c3cc12)CCCC4 | 795
COC(=O)c1ccc2c(=O)n(-c3cc(C)cc(C)c3)c(N3CCC(C)CC3)nc2c1 | 1420
CCCNC(=O)CCc1c(-c2ccc(Br)cc2)nc2ccccn12 | 624
Cc1ccn2cc(-c3ccc(NC(=O)Nc4ccccc4)cc3)nc2n1 | 640
CCOC(=O)C1CCN(c2ncccc2-c2nnc(-c3ccccc3)o2)CC1 | 1010

The remaining lines, values ahead:

RP-LC retention time [s] | SMILES
732 | O=C(NCc1ccccc1)C1CCCN(c2ncnc3c2nc2n3CCCCC2)C1 (centres undefined)
838 | COc1ccc(S(=O)(=O)N2CCCC(C(=O)Nc3ccc4c(c3)OCO4)C2)cc1OC (centres undefined)
588 | CC(=O)Nc1ccc(N2CCN(C3CCCCC3)CC2)cc1C(=O)O
935 | Cc1ccc(C2=NC3(CCN(C(=O)COc4ccc(Cl)cc4)CC3)ON2)cc1
911 | CSc1cccc(NC(=O)Cn2cccc(-c3nc(-c4ccccc4)no3)c2=O)c1
854 | O=C(CSc1ccc(-c2ccc3c(c2)OCO3)nn1)c1cccs1
846 | O=C(COc1cccc2c1CCN(Cc1ccc(F)cc1)C2=O)Nc1ccc2c(c1)OCO2
900 | Cc1nc(NCc2ccco2)sc1C(=O)Nc1ccc(F)c(Cl)c1
724 | Cn1c(=O)c(-c2ccc(C(=O)NCC3CCCO3)cc2)nc2ccccc21 (centres undefined)
646 | Cc1c(Cl)ccc2c(=O)c3c([nH]c12)CCN(CC(=O)Nc1ccc2c(c1)OCCO2)C3
1020 | CCOC(=O)C1CCCN(S(=O)(=O)c2cc(-c3nnc(-c4ccccc4)o3)ccc2OC)C1 (centres undefined)
786 | CCCc1nnsc1C(=O)Nc1ccc2c(c1)CN(C(=O)c1ccco1)CC2
704 | O=C(NCC1CCN(S(=O)(=O)C2CC2)CC1)c1cnc2ccccc2n1
654 | O=c1ccc(N2CCCC(NS(=O)(=O)Cc3ccccc3)C2)n[nH]1 (centres undefined)
748 | COC1CCC12CCN(C(=O)c1cccs1)CC2 (centres undefined)
794 | CCN(C(=O)C1CCN(S(=O)(=O)c2ccc3c(c2)NC(=O)CO3)CC1)c1ccccc1
735 | CCCNC(=O)N1CCCN(C2=NS(=O)(=O)C(c3ccccc3)=C2C)CC1
819 | Cc1cc(-c2ccc(C(C)C)c(S(=O)(=O)N3CCN(c4ccccn4)CC3)c2)on1
1040 | COc1ccccc1NC(=O)N1CCOc2ccc(C)cc21
980 | Cc1sc(NC(=O)Cn2c(=O)sc3ccccc32)nc1-c1ccccc1

RP-LC retention time [s] | SMILES
752 | O=C(c1ccc([N+](=O)[O-])o1)N1CCN(C(=O)C2CC2c2cccs2)CC1 (centres undefined)
1050 | Cc1noc(/C=C/c2ccc(F)cc2F)c1S(=O)(=O)N1CCC(C(=O)Nc2nccs2)CC1
704 | CC1(C(=O)NCc2ccc(Cl)cc2)CCCCC(=O)N1 (centres undefined)
679 | Cc1ccc2[nH]cc(CCN3CC(C(=O)N4CCOCC4)CC3=O)c2c1 (centres undefined)
626 | CCCNC(=O)C1CCN(c2ccc(SCC(=O)NCc3cc(F)cc(F)c3)nn2)CC1
802 | O=C(NCC1(c2cccs2)CCOCC1)C(=O)Nc1ccc2c(c1)OCCO2
876 | CC1CCC(NC(=O)C2CCN(S(=O)(=O)c3ccc4c(c3)NC(=O)C(C)O4)CC2)CC1 (centres undefined)
599 | COc1ccc(NC(=O)CN2CCc3c(c(=O)c4cc(C)ccc4n3C)C2)cc1
976 | O=C(Nc1ccc(Cl)cc1)C1(c2cccs2)CCOCC1
659 | CN(Cc1nc2cc(C(=O)N3CCCC3)ccc2n1C)C(=O)Nc1ccc(Br)cc1F
911 | CCCNC(=O)N(CC(=O)N1CCc2sccc2C1COc1ccccc1)CC1CCCO1 (centres undefined)
612 | CCn1c(C(=O)NCCCN2CCOCC2)cc2c(=O)oc3ccccc3c21
743 | Cc1ccc(CNC(=O)Cn2cnc3nc(N4CCCC(C(=O)NC5CC5)C4)sc3c2=O)cc1 (centres undefined)
692 | Cc1ccc2c(=O)c(C(=O)N3CCCC3)cn(CC(=O)Nc3ccc(F)cc3F)c2n1
578 | COCCNC(=O)C1CCN(C(=O)c2cccn2-c2cccnc2)CC1
528 | O=C(NCc1cccs1)C1CCN(c2nnc3ccccn23)CC1
815 | CC(NC(=O)Cn1cc(C(=O)C(=O)N2CCCC2)c2ccccc21)c1ccc2c(c1)OCCCO2 (centres undefined)
656 | Cc1ccc(S(=O)(=O)N2CCCC(CCC(=O)NCc3ccccn3)C2)cc1 (centres undefined)
691 | CCc1ccc(NS(=O)(=O)c2cc3n(c2)CCCNC3=O)cc1
